# Measured values: paper PMC10787398, “Simultaneous determination of colistin sulfate and tigecycline in human plasma by liquid chromatography-tandem mass spectrometry method” (BMC Chemistry, 2024)
# Legend:
# [1] = Plasma trough and peak concentrations in patients on intravenous polymyxin and tigecycline (HPLC-MS/MS); details: First dose 100 mg maintenance dose 50 mg q12h iv, plasma, HPLC-MS/MS; for Tigecycline Peak concentration: 30 min after 7th administration; for Tigecycline Trough concentration: before 7th administration
# Text: Plasma samples were collected from patients receiving simultaneous intravenous polymyxin and tigecycline treatment. Inclusion criteria: ① Patients receiving simultaneous intravenous polymyxin and tigecycline treatment; ② Age ≥ 18 years; ③ Patients who consent to the monitoring of polymyxin and tigecycline blood drug concentrations during treatment. Exclusion criteria: ① Pregnant or lactating women; ② Treatment duration < 3 days; ③ Local administration; ④ Blood dialysis treatment. Once the blood drug concentration reached a steady state, 3 ml of venous blood was collected before and 30 min after the seventh administration to measure the peak and trough concentrations. This study was conducted with approval from the Ethics Committee of Second Hospital of Hebei Medical University (2020-R551). This study was conducted in accordance with the declaration of Helsinki.
# Two hundred microliters of the plasma sample were adopted, with 20 µL of the internal standard added, and it was vortexed for 20 s. Two hundred microliters of 5% trichloroacetic acid was added for acidification and vortexed for 10 s. Two hundred microliters of methanol was added for extraction, vortexed for 2 min, and centrifuged at 10,900 r/min for 5 min. Two hundred microliters of the supernatant were aspirated into the injection bottle, and 10 µL of the sample was injected for the HPLC–MS/MS analysis.
# All patients received an initial dose of 100 mg and a maintenance dose of 50 mg q12h for tigecycline. Three milliliters of venous blood were collected before and after the seventh administration to measure the peak and trough concentrations of the drugs.
# [2] = Stability of analytes in spiked plasma samples under storage conditions; format: in vitro ADME, human; details: for Measured value, Stored at -80℃ for 7 days / Measured value, Automatic sampler 15℃ for 24 h / Measured value, Freeze-thaw for 3 cycles / Measured value, At 4℃ for 12 h / Measured value, At room temperature for 6 h: HPLC-MS/MS, n = 5; for Measured value, Automatic sampler 15℃ for 24 h: automatic sampler 15 ℃ 24 h; for Measured value, Freeze-thaw for 3 cycles: frozen at -80 °C and thawed at room temperature; for Measured value, At 4℃ for 12 h: refrigerator 4 °C 12 h
# Experimental: Plasma samples with low, medium, and high mass concentrations were prepared (the mass concentrations of colistin sulfate were 0.1, 1, and 8 µg/mL, respectively, and those of tigecycline were 0.05, 0.5, and 4 µg/mL, respectively). Five replicates of each concentration were prepared and placed in a refrigerator at 4 °C for 12 h, at room temperature for 6 h, and in an automatic sampler at 15 ℃ for 24 h. The samples were, on three occasions, frozen at − 80 °C and thawed at room temperature, and then placed in a − 80 °C refrigerator for seven days. The concentrations and RSDs of colistin sulfate and tigecycline in the plasma samples were calculated based on the accompanying standard curve of the day to evaluate their stabilities.
# [3] = patient 1 (BMI 27.04 kg/m^2, CrCL 107 ml/min, ALB 33.8 g/L)
# [4] = patient 2 (BMI 27.69 kg/m^2, CrCL 36 ml/min, ALB 30.35 g/L)
# [5] = patient 3 (BMI 23.88 kg/m^2, CrCL 90 ml/min, ALB 26.80 g/L)
# [6] = patient 4 (BMI 18.72 kg/m^2, CrCL 111 ml/min, ALB 32.50 g/L)
# [7] = patient 5 (BMI 22.14 kg/m^2, CrCL 84 ml/min, ALB 28.00 g/L)
# [8] = patient 6 (Femaee, BMI 19.3 kg/m^2, CrCL 161 ml/min, ALB 35.3 g/L)
# [9] = patient 7 (BMI 24.16 kg/m^2, CrCL 59 ml/min, ALB 36.72 g/L)
# [10] = patient 8 (BMI 27.44 kg/m^2, CrCL 98 ml/min, ALB 33.30 g/L)
# [11] = patient 9 (BMI 20.91 kg/m^2, CrCL 106 ml/min, ALB 32.71 g/L)
# [12] = patient 10 (BMI 21.95 kg/m^2, CrCL 129 ml/min, ALB 31.89 g/L)
# [13] = patient 11 (BMI 22.51 kg/m^2, CrCL 27 ml/min, ALB 27.10 g/L)
# [14] = patient 12 (BMI 23.71 kg/m^2, CrCL 170 ml/min, ALB 32.50 g/L)
# [15] = plasma QC high, nominal colistin sulfate 8 µg/mL, tigecycline 4 µg/mL
# [16] = plasma QC low, nominal colistin sulfate 0.1 µg/mL, tigecycline 0.05 µg/mL
# [17] = plasma QC medium, nominal colistin sulfate 1 µg/mL, tigecycline 0.5 µg/mL
compound,measurement,setting,value
"CN(C)c1cc(NC(=O)CNC(C)(C)C)c(O)c2c1C[C@H]1C[C@H]3[C@H](N(C)C)C(O)=C(C(N)=O)C(=O)[C@@]3(O)C(O)=C1C2=O [Tigecycline, tigecycline]",Tigecycline Peak concentration,[1]; [3],1.72 µg/mL
same,Tigecycline Trough concentration,[1]; [3],0.79 µg/mL
same,Tigecycline Peak concentration,[1]; [4],1.68 µg/mL
same,Tigecycline Trough concentration,[1]; [4],0.81 µg/mL
same,Tigecycline Peak concentration,[1]; [5],1.67 µg/mL
same,Tigecycline Trough concentration,[1]; [5],0.77 µg/mL
same,Tigecycline Peak concentration,[1]; [6],1.47 µg/mL
same,Tigecycline Trough concentration,[1]; [6],0.69 µg/mL
same,Tigecycline Peak concentration,[1]; [7],1.17 µg/mL
same,Tigecycline Trough concentration,[1]; [7],0.58 µg/mL
same,Tigecycline Peak concentration,[1]; [8],1.11 µg/mL
same,Tigecycline Trough concentration,[1]; [8],0.66 µg/mL
same,Tigecycline Peak concentration,[1]; [9],1.01 µg/mL
same,Tigecycline Trough concentration,[1]; [9],0.58 µg/mL
same,Tigecycline Peak concentration,[1]; [10],0.92 µg/mL
same,Tigecycline Trough concentration,[1]; [10],0.63 µg/mL
same,Tigecycline Peak concentration,[1]; [11],1.22 µg/mL
same,Tigecycline Trough concentration,[1]; [11],0.65 µg/mL
same,Tigecycline Peak concentration,[1]; [12],1.08 µg/mL
same,Tigecycline Trough concentration,[1]; [12],0.33 µg/mL
same,Tigecycline Peak concentration,[1]; [13],0.99 µg/mL
same,Tigecycline Trough concentration,[1]; [13],0.25 µg/mL
same,Tigecycline Peak concentration,[1]; [14],1.78 µg/mL
same,Tigecycline Trough concentration,[1]; [14],0.48 µg/mL
same,"Measured value, Stored at -80℃ for 7 days","[2]; plasma QC high, nominal colistin sulfate 8 µg/mL, tigecycline 4 µg/mL, -80 °C 7 days",4.30 ± 0.03 µg/mL
same,"Measured value, Automatic sampler 15℃ for 24 h",[2]; [15],4.00 ± 0.26 µg/mL
same,"Measured value, Freeze-thaw for 3 cycles",[2]; [15],3.82 ± 0.45 µg/mL
same,"Measured value, At 4℃ for 12 h",[2]; [15],3.93 ± 0.36 µg/mL
same,"Measured value, At room temperature for 6 h","[2]; plasma QC high, nominal colistin sulfate 8 µg/mL, tigecycline 4 µg/mL, room temperature 6 h",4.87 ± 0.07 µg/mL
same,"Measured value, Stored at -80℃ for 7 days","[2]; plasma QC low, nominal colistin sulfate 0.1 µg/mL, tigecycline 0.05 µg/mL, -80 °C 7 days",0.05 ± 0.00 µg/mL
same,"Measured value, Automatic sampler 15℃ for 24 h",[2]; [16],0.05 ± 0.00 µg/mL
same,"Measured value, Freeze-thaw for 3 cycles",[2]; [16],0.05 ± 0.00 µg/mL
same,"Measured value, At 4℃ for 12 h",[2]; [16],0.05 ± 0.00 µg/mL
same,"Measured value, At room temperature for 6 h","[2]; plasma QC low, nominal colistin sulfate 0.1 µg/mL, tigecycline 0.05 µg/mL, room temperature 6 h",0.05 ± 0.00 µg/mL
same,"Measured value, Stored at -80℃ for 7 days","[2]; plasma QC medium, nominal colistin sulfate 1 µg/mL, tigecycline 0.5 µg/mL, -80 °C 7 days",0.46 ± 0.03 µg/mL
same,"Measured value, Automatic sampler 15℃ for 24 h",[2]; [17],0.49 ± 0.03 µg/mL
same,"Measured value, Freeze-thaw for 3 cycles",[2]; [17],0.52 ± 0.04 µg/mL
same,"Measured value, At 4℃ for 12 h",[2]; [17],0.46 ± 0.01 µg/mL
same,"Measured value, At room temperature for 6 h","[2]; plasma QC medium, nominal colistin sulfate 1 µg/mL, tigecycline 0.5 µg/mL, room temperature 6 h",0.54 ± 0.03 µg/mL
same,stability under the above conditions,"[2]; plasma samples, 4 °C 12 h, room temperature 6 h, autosampler 15 ℃ 24 h, 3 freeze-thaw cycles, -80 °C 7 days",good stability
